This is an account of results in the supplement of paper PMC10307832.

Holding throughout (test): relative viability (nuclei count vs DMSO), 5 days (fraction); higher = more cells survive
Compound in experiment [1]: CCN(CCO)CCCC(C)Nc1ccnc2cc(Cl)ccc12 [Hydroxychloroquine] + COc1cc2c(Oc3ccc(NC(=O)C4(C(=O)Nc5ccc(F)cc5)CC4)cc3F)ccnc2cc1OCCCN1CCOCC1 [Foretinib] (partner 0.25 µM)
In a few lines: (§1)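 Values are medians from duplicate plates. Each reflects relative viability, defined as the nuclei count of treated wells over that of vehicle wells. Lung cancer cell lines in 1536-well plates were pin-tool dosed one day after seeding with one drug alone or with a fixed anchor-drug dose plus five library-drug doses (not always all listed) in √10 steps, then fixed, stained and imaged at 4× after 5 days.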

Compound in experiment [2]: CCN(CCO)CCCC(C)Nc1ccnc2cc(Cl)ccc12 [Hydroxychloroquine] + CS(=O)(=O)N1CCN(Cc2cc3nc(-c4cccc5[nH]ncc45)nc(N4CCOCC4)c3s2)CC1 [Pictilisib] (partner 1 µM)
The method, boiled down: as §1

Compound in experiment [3]: CCN(CCO)CCCC(C)Nc1ccnc2cc(Cl)ccc12 [Hydroxychloroquine] + NC(=O)Nc1cc(-c2cccc(F)c2)sc1C(=O)N[C@H]1CCCNC1 [AZD7762] (partner 0.2 µM)
In a few lines:
as §1

Compound in experiment [4]: CCN(CCO)CCCC(C)Nc1ccnc2cc(Cl)ccc12 [Hydroxychloroquine] + O=C(CCCCCCC(=O)Nc1ccccc1)NO [Vorinostat] (partner 1 µM)
The method, boiled down: as §1

In the case of NCI-H2126, the relative viability in experiment [1] (first compound 0.5 µM) turned out to be 1.21; in experiment [1] (first compound 1.581 µM), 1.11; in experiment [1] (first compound 5 µM), 1.33; in experiment [1] (first compound 15.81 µM), 1.08; in experiment [1] (first compound 50 µM) it was 1.1; in experiment [2] (first compound 0.5 µM), 0.525. The relative viability in experiment [2] (first compound 1.581 µM) was found to be 0.433; in experiment [2] (first compound 5 µM), 0.485; in experiment [2] (first compound 15.81 µM) it was 0.467; in experiment [2] (first compound 50 µM), 0.542; in experiment [3] (first compound 0.5 µM), 1.07; in experiment [3] (first compound 1.581 µM), 1.12. In addition, the relative viability in experiment [3] (first compound 5 µM) is 0.984; in experiment [3] (first compound 15.81 µM) it was 1.08; in experiment [3] (first compound 50 µM), 1.03; in experiment [4] (first compound 0.5 µM), 0.834; in experiment [4] (first compound 1.581 µM), 0.728; in experiment [4] (first compound 5 µM), 0.749. Also, the figures for the relative viability in experiment [4] (first compound 15.81 µM) and in experiment [4] (first compound 50 µM) were 0.733 and 0.897, respectively.

As for HCC-827, the relative viability in experiment [1] (first compound 0.5 µM) came out at 1.13; in experiment [1] (first compound 1.581 µM) it was 0.956; in experiment [1] (first compound 5 µM) it was 1.05; in experiment [1] (first compound 15.81 µM), 1.2; in experiment [1] (first compound 50 µM) it was 1.08; in experiment [2] (first compound 0.5 µM) it was 1.01. Also, the relative viability in experiment [2] (first compound 1.581 µM) was 0.899; in experiment [2] (first compound 5 µM), 0.755; in experiment [2] (first compound 15.81 µM), 0.98; in experiment [2] (first compound 50 µM), 1.06; in experiment [3] (first compound 0.5 µM), 0.207; in experiment [3] (first compound 1.581 µM), 0.227. Besides, the relative viability in experiment [3] (first compound 5 µM) stood at 0.237; in experiment [3] (first compound 15.81 µM), 0.264; in experiment [3] (first compound 50 µM), 0.22; in experiment [4] (first compound 0.5 µM), 0.811; in experiment [4] (first compound 1.581 µM), 0.873; in experiment [4] (first compound 5 µM) it was 0.786. Besides, the relative viability in experiment [4] (first compound 15.81 µM) was 0.759; in experiment [4] (first compound 50 µM) it was 0.571.

As for NCI-H3122, the relative viability in experiment [1] (first compound 0.5 µM) was 0.92; in experiment [1] (first compound 1.581 µM), 0.934; in experiment [1] (first compound 5 µM) it was 0.945; in experiment [1] (first compound 15.81 µM), 0.985; in experiment [1] (first compound 50 µM), 1.03; in experiment [2] (first compound 0.5 µM) it was 0.658. The relative viability in experiment [2] (first compound 1.581 µM) came to 0.574; in experiment [2] (first compound 5 µM), 0.619; in experiment [2] (first compound 15.81 µM), 0.58; in experiment [2] (first compound 50 µM), 0.576; in experiment [3] (first compound 0.5 µM), 0.956; in experiment [3] (first compound 1.581 µM) it was 0.976. The relative viability in experiment [3] (first compound 5 µM) worked out at 1.06; in experiment [3] (first compound 15.81 µM), 0.993; in experiment [3] (first compound 50 µM) it was 1.13; in experiment [4] (first compound 0.5 µM), 1.04; in experiment [4] (first compound 1.581 µM), 1.13; in experiment [4] (first compound 5 µM), 1.03. The relative viability turned out to be 1.06 in experiment [4] (first compound 15.81 µM) and 1.19 in experiment [4] (first compound 50 µM).

Regarding HOP-62, the relative viability in experiment [1] (first compound 0.5 µM) is 1.15; in experiment [1] (first compound 1.581 µM) it was 1.24; in experiment [1] (first compound 5 µM), 1.14; in experiment [1] (first compound 15.81 µM) it was 1.27; in experiment [1] (first compound 50 µM), 1.23; in experiment [2] (first compound 0.5 µM), 0.682. Moreover, the relative viability in experiment [2] (first compound 1.581 µM) came out at 0.643; in experiment [2] (first compound 5 µM), 0.722; in experiment [2] (first compound 15.81 µM) it was 0.854; in experiment [2] (first compound 50 µM), 0.515; in experiment [3] (first compound 0.5 µM), 0.448; in experiment [3] (first compound 1.581 µM), 0.968. The relative viability in experiment [3] (first compound 5 µM) came out at 0.661; in experiment [3] (first compound 15.81 µM), 0.626; in experiment [3] (first compound 50 µM) it was 0.732; in experiment [4] (first compound 0.5 µM), 0.584; in experiment [4] (first compound 1.581 µM), 0.628; in experiment [4] (first compound 5 µM) it was 0.573. The relative viability in experiment [4] (first compound 15.81 µM) came to 0.574; in experiment [4] (first compound 50 µM), 0.69.
